Experimental data from patent EP0791603A2, “Pure somatostatin antagonist and methods of use thereof” (American Cyanamid Company, priority 1996, dated 1997).
Positions of bridges follow the written chain, without caps; N, C: chain ends. Non-standard residues stand in square brackets, D forms with d. Residues, ends and D or L forms follow the SMILES beside them. NMePhe(4-NO2) = CN[C@@H](Cc1ccc([N+](=O)[O-])cc1)C(=O)O; Phe(4-NO2) = N[C@@H](Cc1ccc([N+](=O)[O-])cc1)C(=O)O; 2Nal = N[C@@H](Cc1ccc2ccccc2c1)C(=O)O; d2Nal = N[C@H](Cc1ccc2ccccc2c1)C(=O)O; Abu = CC[C@H](N)C(=O)O

Assays:
SSTR2 = SSTR2 (Rattus norvegicus, UniProt P30680); experiment: Cyclic AMP accumulation in intact cells (adrenal binding protein method); format: cell-based; conditions: forskalin stimulated c-AMP levels in intact cells, 15 minutes at 37°C; read-out: % IA (% intrinsic activity)
Text: Cyclic AMP accumulation assays are used to determine the functional coupling of somatostatin receptors to effectors. All five cloned somatostatin receptors inhibit cyclic AMP accumulation and adenylyl cyclone activity ^1 ^,2,3,4,5. This evaluation measures cyclic AMP accumulation from intact cells using the adrenal binding protein method. Signal transduction by somatostatin is mediated by lowering intracellular c-AMP levels. This functional assay measures the ability of the test compound to inhibit the effect of somatostatin on forskalin stimulated c-AMP levels. ^1 K. Yasuda, S. Rens-Damiano, C. D. Breder, S. F. Law, C. B. Saper, T. Reisine and G. I. Bell, J. Biol. Chem. 267,20422-20428 (1992). ^2 J. F. Bruno, Y. Xu, J. Song and M. Berelowitz, Proc. Natl. Acad. Sci. USA 89, 11151-11155 (1992). ^3 A. M. O'Carrol, S. J. Lolait, M. König and L. Mahan, Mol. Pharmacol. 42, 939-946 (1992). ^4 J. R. Hadcock, J. Strnad and C. M. Eppler, Mol. Pharmacol. 45, 410-416 (1994). ^5 J. Strnad, C. M. Eppler, M. Corbett and J. R. Hadcock, Biochem. Biophys. Res. Commun.191, 968-976 (1993).
Bovine adrenal gland extracts are prepared according to the method of Brown et al^6 with minor modifications. […] Two-four adrenals are thawed and the cortices are separated on ice: chopped into small pieces; resuspended in 1.5 volumes of buffer containing 0.25 M sucrose, 50 mM Tris-HCl pH 7.4, 25 mM KCl, 5 mM MgCl2 and protease inhibitors (5 µg/ml leupeptin, 5µg/ml aprotinin, 100 µg/ml bacitracin, and 100 µg/ml benzamidine; homogenized with a Polytron and centrifuged for 5 minutes. The resultant supernatant is saved and centrifuged for 15 minutes. This resultant supernatant is saved and stored as 1 mL aliquots at -80°C. Four adrenals glands are usually sufficient to prepare 30-50 one mL aliquots. Each preparation is tested with standards at different dilutions before use in the following experiment. ^6 B. L. Brown, J. D. M. Albano, R. P. Ekins and A. M. Sgherzi, Biochem. J. 121, 561-562 (1971).
Somatostatin-mediated inhibition of cyclic AMP accumulation is measured in intact cells co-incubated with the diterpene forskalin (5 µM) which activates adenylyl cyclase directly and stimulates cyclic AMP accumulation in cells. The medium is aspirated from two 100 mm plates of cells, a 5 mL portion of phosphate-buffered saline containing 2 mM EDTA is added to each plate. The cells are washed off the plate, without scraping. The cells are then pelleted and resuspended in Kreb's Ringers Phosphate (KRP) containing 2 mM CaCl2 (added fresh), washed once and resuspended in 2 ml of KRP with a CaCl2 containing 100 µM IBMX. The cells are counted and the concentration of cells is adjusted to 50,000/70 µl and incubated 15 minutes at room temperature before starting the assay.
Polypropylene tubes (12 x 75) are labelled (test samples are done in triplicate including controls). Test samples are prepared containing the following: no added peptide sample (basal), forskalin alone (10 µM final), and forskalin plus various amounts of S-14 (1 X 10^-10M to 1 X 10^-6M, final). The first two steps are done on the bench top. Volumes are adjusted with KRP and 10 µl 1 mM IBMX is added to each tube. The tubes are placed in a shaking 37°C water bath and 70 µl cells is added at 15 second intervals until final volume/tube is 100 µL (concentration of cells is 25-100,000/tube). The tubes are incubated for 15 minutes at 37°C, treated with 10 µl of 1.0 N HCl at 10 second intervals and transfered to an ice bath for 3 minutes (tubes may be stored overnight). The samples are neutralized with […] 1.0 N NaOH containing 250 mM Tris, pH 7.4.
The test tube racks are placed half way down in a large chest of ice. A 50µl portion of cyclic AMP standard (Sigma) is aliquoted to each tube in triplicate (e.g. 0, 0.5, 1.0, 2.0, 4.0, 8.0, 16.0 pmoles/tube), then 70µl KRP is added to each tube of standard. One set of tubes containing 220 µl KRP is set up for the background. […]

[1] = molecular target: T1, rat somatostatin receptor subtype 2 (SSTR2) (Rattus norvegicus, UniProt P30680); experiment: Yeast assay, somatostatin antagonist activity (zone of no growth in presence of S-14); format: cell-based; set-up: key: 1 is minimum antagonist activity; 5 is maximum antagonist activity; -: When no activity is observed, the result is indicated by a dash; conditions: rating on a scale of 1-5 from zone of no growth; 5µL of 1 mg/mL S-14 added to each plate; S. Cerevisiae LY364
T1 construct: expressed in transfected cells; host or cells: Saccharomyces cerevisiae LY364
Protocol: To evaluate the somatostatin antagonist activity of a test compound, the above procedure is followed except on day 3, 5µL of 1 mg/mL of somatostatin, S-14, is added to each plate, before applying the test compound. If the test compound is an antagonist of somatostatin, then a zone of no growth will appear within the cell growth zone. This zone of no growth is measured and the test compound is given an antagonist rating on a scale of 1-5 wherein 1 is minimum antagonist activity and 5 is maximum antagonist activity.
The results are shown in Table I. When no activity is observed, the result is indicated by a dash.
• 1) Inoculate 2 mL SCD-ura-trp liquid medium in Falcon 2051 tube with a single colony taken from a plate containing LY364 (MATa ura3-52 leu2 his3 trp1 lys2 ade2 far1:: LYS2 fus1:: FUS1-HIS3 gpal::hisG sst2::ADE2 bearing the SSTR2 expression plasmid, pJH2, and the G protein expression plasmid, pLP82)cells. • 2) Incubate overnight in a roller drum at 30°C.
Day 2. • 1) Harvest the cells by centrifugation (3 krpm, 5 min, room temp). • 2) Re-suspend with 5 mL of sterile water. • 3) Harvest again by centrifugation. • 4) Re-suspend in 5 mL SCL-ura-trp liquid medium. • 5) Incubate for 6 hours in a roller drum at 30°C. • 6) Harvest the cells again by centrifugation. • 7) Re-suspend in 5 mL SCG-ura-trp liquid medium. • 8) Incubate overnight in a roller drum at 30°C.
Day 3. • 1) Autoclave SCG-ura-trp-his pH 6.8 agar medium. • 2) Cool to 55°C in water bath. • 3) Add 1 mL of LY364 culture to 1 liter of agar medium. • 4) Stir vigorously for 1 min. • 5) Pour 150 mL each into five 500 cm^2 plates. • 6) Allow to cool on level surface. • 7) Apply test compound.
On day 3, add 5µL 1 mg/mL S-14 to each plate. Day 5. Begin checking plates for growth around applied compounds. Day 7. Growth in response to somatostatin should be readily observable. Rate extent of growth or inhibition of growth according to rating scale described hereinabove.

SSTR2, sequence (P30680 whole entry): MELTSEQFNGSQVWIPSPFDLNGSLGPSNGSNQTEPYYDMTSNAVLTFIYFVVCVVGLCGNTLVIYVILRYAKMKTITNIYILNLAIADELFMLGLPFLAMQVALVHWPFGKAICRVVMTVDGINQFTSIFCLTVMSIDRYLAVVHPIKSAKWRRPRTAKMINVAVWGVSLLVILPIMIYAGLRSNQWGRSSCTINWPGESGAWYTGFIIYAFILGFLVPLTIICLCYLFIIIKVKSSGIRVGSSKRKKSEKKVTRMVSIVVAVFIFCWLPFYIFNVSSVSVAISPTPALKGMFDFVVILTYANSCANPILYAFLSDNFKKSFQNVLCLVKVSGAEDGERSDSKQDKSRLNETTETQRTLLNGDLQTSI
T1 sequence (P30680 whole entry): as above

| Compound | Emax (SSTR2) [%] | Yeast Assay Antagonist [1] |
| --- | --- | --- |
| C[C@@H](O)[C@@H]1NC(=O)[C@H](CCCCN)NC(=O)[C@@H](Cc2c[nH]c3ccccc23)NC(=O)[C@H](Cc2ccc(O)cc2)NC(=O)[C@H](NC(=O)[C@@H](N)Cc2ccc([N+](=O)[O-])cc2)CSSC[C@@H](C(=O)N[C@H](Cc2ccc(O)cc2)C(N)=O)NC1=O | 12 | 4 |
| C[C@@H](O)[C@@H]1NC(=O)[C@H](CCCCN)NC(=O)[C@@H](Cc2c[nH]c3ccccc23)NC(=O)[C@H](Cc2ccc(O)cc2)NC(=O)[C@H](NC(=O)[C@@H](N)Cc2ccc([N+](=O)[O-])cc2)CSSC[C@@H](C(=O)N[C@@H](Cc2ccc(O)cc2)C(N)=O)NC1=O | 5 | 5 |
| CC(=O)N[C@@H](Cc1ccc([N+](=O)[O-])cc1)C(=O)N[C@@H]1CSSC[C@@H](C(=O)N[C@H](Cc2ccc(O)cc2)C(N)=O)NC(=O)[C@H]([C@@H](C)O)NC(=O)[C@H](CCCCN)NC(=O)[C@@H](Cc2c[nH]c3ccccc23)NC(=O)[C@H](Cc2ccc(O)cc2)NC1=O | -3 | 4 |
| CC(=O)N[C@@H](Cc1ccc2ccccc2c1)C(=O)N[C@@H]1CSSC[C@@H](C(=O)N[C@@H](Cc2ccc(O)cc2)C(N)=O)NC(=O)[C@H]([C@@H](C)O)NC(=O)[C@H](CCCCN)NC(=O)[C@@H](Cc2c[nH]c3ccccc23)NC(=O)[C@H](Cc2ccc(O)cc2)NC1=O (Ac-[2Nal][dC]Y[dW]KTCY-NH2; disulfide 2-7 (inferred)) | -26 | 1 |
| CC(C)[C@@H]1NC(=O)[C@H](CCCCN)NC(=O)[C@@H](Cc2c[nH]c3ccccc23)NC(=O)[C@H](Cc2ccc(O)cc2)NC(=O)[C@H](NC(=O)[C@@H](N)Cc2ccc3ccccc3c2)CSSC[C@@H](C(=O)N[C@@H](Cc2ccc(O)cc2)C(N)=O)NC1=O (H-[2Nal][dC]Y[dW]KVCY-NH2; disulfide 2-7; N-terminus assumed) | 13 | 3 |
| CN[C@@H](Cc1ccc([N+](=O)[O-])cc1)C(=O)N[C@@H]1CSSC[C@@H](C(=O)N[C@@H](Cc2ccc(O)cc2)C(N)=O)NC(=O)[C@H](C(C)C)NC(=O)[C@H](CCCCN)NC(=O)[C@@H](Cc2c[nH]c3ccccc23)NC(=O)[C@H](Cc2ccc(O)cc2)NC1=O (H-[NMePhe(4-NO2)][dC]Y[dW]KVCY-NH2; disulfide 2-7 (inferred)) | 9 | 5 |
| CC(C)[C@@H]1NC(=O)[C@H](CCCCN)NC(=O)[C@@H](Cc2c[nH]c3ccccc23)NC(=O)[C@H](Cc2ccc(O)cc2)NC(=O)[C@H](NC(=O)[C@@H](N)Cc2ccc([N+](=O)[O-])cc2)CSSC[C@@H](C(=O)N[C@@H](Cc2ccc(O)cc2)C(N)=O)NC1=O (H-[Phe(4-NO2)][dC]Y[dW]KVCY-NH2; disulfide 2-7 (inferred)) | 11 | 5 |
| CC(C)[C@@H]1NC(=O)[C@H](CCCCN)NC(=O)[C@@H](Cc2c[nH]c3ccccc23)NC(=O)[C@H](Cc2ccc(O)cc2)NC(=O)[C@H](NC(=O)[C@@H](N)Cc2ccc([N+](=O)[O-])cc2)CSSC[C@@H](C(=O)N[C@@H](Cc2ccc3ccccc3c2)C(N)=O)NC1=O (H-[Phe(4-NO2)][dC]Y[dW]KVC[2Nal]-NH2; disulfide 2-7 (inferred)) | 8 | 2 |
| CC[C@@H]1NC(=O)[C@H](CCCCN)NC(=O)[C@@H](Cc2c[nH]c3ccccc23)NC(=O)[C@H](Cc2ccc(O)cc2)NC(=O)[C@H](NC(=O)[C@@H](N)Cc2ccc([N+](=O)[O-])cc2)CSSC[C@@H](C(=O)N[C@@H](Cc2ccc(O)cc2)C(N)=O)NC1=O (H-[Phe(4-NO2)][dC]Y[dW]K[Abu]CY-NH2; disulfide 2-7 (inferred)) | 21 | 3 |
| CC(C)[C@@H]1NC(=O)[C@H](CCCCN)NC(=O)[C@@H](Cc2c[nH]c3ccccc23)NC(=O)[C@H](Cc2ccc(O)cc2)NC(=O)[C@H](NC(=O)[C@H](N)Cc2ccc3ccccc3c2)CSSC[C@@H](C(=O)N[C@@H](Cc2ccc(O)cc2)C(N)=O)NC1=O (H-[d2Nal][dC]Y[dW]KVCY-NH2; disulfide 2-7) | 8 | 2 |
